Results taken from US12692221B2 (priority 2024, dated 2026).

Assays:
Lck kinase (h) = target: T1, Lck kinase (h) (Homo sapiens, UniProt P06239); assay: Enzyme assay Lck kinase (h), LANCE; type: biochemical
T1 construct: host or cells: insect cells
Description: (§1) Methods—Enzyme and Uptake Assays: In vitro enzyme and uptake assays were conducted by Eurofins Discovery using human recombinant enzymes expressed in various mammalian and insect cell lines. Enzymatic activity was measured using appropriate substrates or tracers under conditions optimized for each target, as detailed in Table 7. Reactions were incubated at room temperature for a defined duration and terminated according to established protocols. The measured components (either enzymatic products or remaining substrate) were quantified using fluorimetry, photometry, scintillation counting, or LANCE technology, depending on the assay. Assay-specific parameters, including substrate identity, cell line source, incubation time, and detection method, are provided in Table 7.
(§2) All measurements were performed in technical replicates to ensure reproducibility and data quality.
(§3) Results were expressed both as a percentage of control-specific activity and as percent inhibition of control-specific activity. Percent activity was calculated as (measured specific activity/control specific activity)×100, and percent inhibition as 100−[(measured specific activity/control specific activity)×100], based on values obtained in the presence of test compounds. IC50 and EC50 values, along with Hill coefficients (nH), were determined by nonlinear regression analysis of inhibition or concentration-response curves generated from mean replicate values. Hill curve fitting was performed as previously described using software developed at Cerep and validated against SigmaPlot® 4.0 for Windows® (© 1997 by SPSS Inc.).

delta (DOP) (h) = target: T2, delta (DOP) (h) (Homo sapiens, UniProt P41143); assay: Radioligand binding delta (DOP) (h) (agonist radioligand), [^3H]DALE, Chem-1 RBL; settings: delta (DOP) (h) (agonist radiolig.)
T2 construct: expressed in transfected cells; host or cells: Chem-1 RBL
Description: (§4) Methods—Binding Assays: In vitro binding assays were performed using human recombinant receptors expressed in mammalian cell lines. Receptors were expressed in either HEK-293 or CHO cells depending on the target, and assay conditions (radioligand, concentration, nonspecific competitor, temperature, and incubation time) were optimized for each receptor. All assays were conducted in triplicate, and specific binding was quantified by scintillation counting as the detection method for each listed assay.
(§5) Specific binding was expressed as a percentage of control-specific binding, and percent inhibition was calculated using the formula in Ex. 8 above. Half-maximal inhibitory concentrations (IC50) were determined by non-linear regression analysis of the inhibition curves using the Hill equation (see Ex. 8). Inhibition constants (Ki) were calculated using the Cheng-Prusoff equation (see Ex. 8). KD values used in these calculations had been previously established for each receptor under the assay conditions (see Table 6). Data analysis was performed using software developed at Cerep and validated against SigmaPlot 4.0 for Windows.

[1] = system: Ca^2+ channel (L, dihydropyridine site); assay: Radioligand binding Ca^2+ channel (L, dihydropyridine site) (antagonist radioligand), [^3H]nitrendipine, rat cerebral cortex
AR (h) = target: T3, AR (h) (Homo sapiens, UniProt P10275, T878A); assay: Radioligand binding AR (h) (agonist radioligand), [^3H]methyltrienolone, LNCaP cells
T3 construct: human endog; endogenous in cells; host or cells: LNCaP cells
T3 sequence (P10275 1-920 T878A): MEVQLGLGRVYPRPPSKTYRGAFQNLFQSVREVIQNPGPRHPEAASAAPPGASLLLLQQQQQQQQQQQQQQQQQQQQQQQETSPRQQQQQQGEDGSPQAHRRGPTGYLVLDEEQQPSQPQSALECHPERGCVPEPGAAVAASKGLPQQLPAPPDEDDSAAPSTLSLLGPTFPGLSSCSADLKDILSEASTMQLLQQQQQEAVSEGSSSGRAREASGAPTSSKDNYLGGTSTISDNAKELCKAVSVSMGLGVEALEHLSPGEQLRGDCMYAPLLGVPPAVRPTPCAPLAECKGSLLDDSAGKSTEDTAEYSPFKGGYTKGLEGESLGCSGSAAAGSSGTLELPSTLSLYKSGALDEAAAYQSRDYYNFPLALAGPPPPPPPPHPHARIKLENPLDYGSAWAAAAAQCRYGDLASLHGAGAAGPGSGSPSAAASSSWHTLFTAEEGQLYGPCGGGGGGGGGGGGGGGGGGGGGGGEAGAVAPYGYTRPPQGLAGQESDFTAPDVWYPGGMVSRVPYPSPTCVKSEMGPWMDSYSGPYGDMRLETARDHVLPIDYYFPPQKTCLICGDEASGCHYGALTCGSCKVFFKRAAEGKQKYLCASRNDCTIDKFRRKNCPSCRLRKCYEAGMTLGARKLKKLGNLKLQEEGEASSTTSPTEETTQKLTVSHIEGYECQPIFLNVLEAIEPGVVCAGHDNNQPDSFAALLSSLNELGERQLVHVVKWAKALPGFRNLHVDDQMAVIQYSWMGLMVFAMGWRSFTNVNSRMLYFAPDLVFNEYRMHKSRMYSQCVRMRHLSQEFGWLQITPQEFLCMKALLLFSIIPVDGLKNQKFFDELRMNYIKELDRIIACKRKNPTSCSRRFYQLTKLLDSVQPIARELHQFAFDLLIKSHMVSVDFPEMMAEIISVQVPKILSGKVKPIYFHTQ

PDE3A(h) = target: T4, PDE3A(h) (Homo sapiens, UniProt Q14432); assay: Enzyme assay PDE3A(h), [3H]cAMP, scintillation counting; type: biochemical
T4 construct: host or cells: Sf21 cells
Description: as §1, §2, §3

dopamine transporter(h) = target: T5, dopamine transporter(h) (Homo sapiens, UniProt Q01959); assay: Radioligand binding DA transporter (h) (antagonist radioligand), [^3H]BTCP, CHO cells
T5 construct: expressed in transfected cells; host or cells: CHO cells
Description: as §4, §5

μ (MOP) (h) = target: T6, μ (MOP) (h) (Homo sapiens, UniProt P35372); assay: Radioligand binding μ (MOP) (h) (agonist radioligand), [^3H]DAMGO, HEK-293 cells
T6 construct: expressed in transfected cells; host or cells: HEK-293 cells
Description: as §4, §5

PDE4D2(h) = target: T7, PDE4D2(h) (Homo sapiens, UniProt Q08499); assay: Enzyme assay PDE4D2(h), [3H]cAMP, scintillation counting; type: biochemical
T7 construct: host or cells: Sf9 cells
Description: as §1, §2, §3

D2S (h) = target: T8, D2S (h) (Homo sapiens, UniProt P14416); assay: Radioligand binding D2S (h) (agonist radioligand), [^3H]7-OH-DPAT, HEK-293 cells
T8 construct: expressed in transfected cells; host or cells: HEK-293 cells
Description: as §4, §5

CB1 (h) = target: T9, CB1 (h) (Homo sapiens, UniProt P21554); assay: Radioligand binding CB1 (h) (agonist radioligand), [^3H]CP 55940, Chem-RBL cells
T9 construct: expressed in transfected cells; host or cells: Chem-RBL cells

beta2 (h) = target: T10, beta2 (h) (Homo sapiens, UniProt P07550); assay: Radioligand binding beta2 (h) (antagonist radioligand), [^3H](−)CGP 12177, CHO cells
T10 construct: expressed in transfected cells; host or cells: CHO cells
Description: as §4, §5

[2] = Photoabsorption 290-700 nm, molar extinction coefficient (photoliability); type: physicochemical; settings: wavelength of maximal absorption between 290 nm and 700 nm
H1 (h) = target: T11, H1 (h) (Homo sapiens, UniProt P35367); assay: Radioligand binding H1 (h) (antagonist radioligand), [^3H]pyrilamine, HEK-293 cells
T11 construct: expressed in transfected cells; host or cells: HEK-293 cells
Description: as §4, §5

T2 sequence (P41143 whole entry): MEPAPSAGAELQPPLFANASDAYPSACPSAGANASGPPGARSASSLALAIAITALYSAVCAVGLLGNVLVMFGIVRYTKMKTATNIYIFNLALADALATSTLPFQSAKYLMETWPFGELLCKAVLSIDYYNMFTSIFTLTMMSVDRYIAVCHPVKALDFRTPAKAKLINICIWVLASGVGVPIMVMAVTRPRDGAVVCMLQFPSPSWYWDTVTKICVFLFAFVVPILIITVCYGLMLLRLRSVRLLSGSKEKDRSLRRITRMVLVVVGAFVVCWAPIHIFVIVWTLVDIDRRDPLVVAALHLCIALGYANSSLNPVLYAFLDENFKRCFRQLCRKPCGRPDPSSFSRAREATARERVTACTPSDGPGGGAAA
T5 sequence (Q01959 whole entry): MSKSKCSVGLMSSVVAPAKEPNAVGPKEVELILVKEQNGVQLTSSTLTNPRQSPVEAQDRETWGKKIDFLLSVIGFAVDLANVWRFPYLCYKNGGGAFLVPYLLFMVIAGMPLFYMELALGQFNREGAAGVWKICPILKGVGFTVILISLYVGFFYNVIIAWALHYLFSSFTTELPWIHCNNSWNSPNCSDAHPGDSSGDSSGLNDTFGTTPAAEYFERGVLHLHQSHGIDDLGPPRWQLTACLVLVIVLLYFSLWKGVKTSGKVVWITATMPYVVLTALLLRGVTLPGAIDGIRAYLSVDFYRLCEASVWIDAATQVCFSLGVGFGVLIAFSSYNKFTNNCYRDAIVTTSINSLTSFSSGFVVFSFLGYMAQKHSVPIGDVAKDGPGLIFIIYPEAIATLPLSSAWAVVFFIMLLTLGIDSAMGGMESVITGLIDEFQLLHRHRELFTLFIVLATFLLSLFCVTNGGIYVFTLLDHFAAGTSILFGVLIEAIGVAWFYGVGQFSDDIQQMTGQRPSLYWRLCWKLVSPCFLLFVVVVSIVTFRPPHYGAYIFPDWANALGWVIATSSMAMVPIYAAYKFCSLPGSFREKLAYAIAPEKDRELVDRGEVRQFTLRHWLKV
T8 sequence (P14416 1-414 isoform P14416-2): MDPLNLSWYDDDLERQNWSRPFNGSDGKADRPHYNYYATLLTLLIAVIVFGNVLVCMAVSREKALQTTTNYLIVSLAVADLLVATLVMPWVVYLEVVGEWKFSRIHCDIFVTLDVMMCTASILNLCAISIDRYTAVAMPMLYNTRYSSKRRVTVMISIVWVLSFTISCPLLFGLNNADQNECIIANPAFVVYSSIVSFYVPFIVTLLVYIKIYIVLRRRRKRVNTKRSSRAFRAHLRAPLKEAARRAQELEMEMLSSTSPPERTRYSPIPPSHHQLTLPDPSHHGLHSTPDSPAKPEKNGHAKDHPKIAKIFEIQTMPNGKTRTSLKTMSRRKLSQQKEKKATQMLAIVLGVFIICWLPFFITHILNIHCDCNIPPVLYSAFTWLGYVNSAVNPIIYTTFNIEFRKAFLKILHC
T9 sequence (P21554 whole entry): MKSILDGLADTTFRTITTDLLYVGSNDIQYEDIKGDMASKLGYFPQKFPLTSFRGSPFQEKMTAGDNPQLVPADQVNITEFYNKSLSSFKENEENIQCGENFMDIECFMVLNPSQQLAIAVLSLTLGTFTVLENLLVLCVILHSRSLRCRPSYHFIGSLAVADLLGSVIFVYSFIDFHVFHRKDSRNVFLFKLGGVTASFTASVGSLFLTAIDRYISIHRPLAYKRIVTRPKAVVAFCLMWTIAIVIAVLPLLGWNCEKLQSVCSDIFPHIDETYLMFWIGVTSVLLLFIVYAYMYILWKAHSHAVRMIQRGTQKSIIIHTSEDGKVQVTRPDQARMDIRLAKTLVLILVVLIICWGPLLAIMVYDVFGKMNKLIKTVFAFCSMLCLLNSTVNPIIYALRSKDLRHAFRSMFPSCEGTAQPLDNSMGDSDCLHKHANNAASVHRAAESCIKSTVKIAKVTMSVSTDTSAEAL
T4 sequence (Q14432 whole entry): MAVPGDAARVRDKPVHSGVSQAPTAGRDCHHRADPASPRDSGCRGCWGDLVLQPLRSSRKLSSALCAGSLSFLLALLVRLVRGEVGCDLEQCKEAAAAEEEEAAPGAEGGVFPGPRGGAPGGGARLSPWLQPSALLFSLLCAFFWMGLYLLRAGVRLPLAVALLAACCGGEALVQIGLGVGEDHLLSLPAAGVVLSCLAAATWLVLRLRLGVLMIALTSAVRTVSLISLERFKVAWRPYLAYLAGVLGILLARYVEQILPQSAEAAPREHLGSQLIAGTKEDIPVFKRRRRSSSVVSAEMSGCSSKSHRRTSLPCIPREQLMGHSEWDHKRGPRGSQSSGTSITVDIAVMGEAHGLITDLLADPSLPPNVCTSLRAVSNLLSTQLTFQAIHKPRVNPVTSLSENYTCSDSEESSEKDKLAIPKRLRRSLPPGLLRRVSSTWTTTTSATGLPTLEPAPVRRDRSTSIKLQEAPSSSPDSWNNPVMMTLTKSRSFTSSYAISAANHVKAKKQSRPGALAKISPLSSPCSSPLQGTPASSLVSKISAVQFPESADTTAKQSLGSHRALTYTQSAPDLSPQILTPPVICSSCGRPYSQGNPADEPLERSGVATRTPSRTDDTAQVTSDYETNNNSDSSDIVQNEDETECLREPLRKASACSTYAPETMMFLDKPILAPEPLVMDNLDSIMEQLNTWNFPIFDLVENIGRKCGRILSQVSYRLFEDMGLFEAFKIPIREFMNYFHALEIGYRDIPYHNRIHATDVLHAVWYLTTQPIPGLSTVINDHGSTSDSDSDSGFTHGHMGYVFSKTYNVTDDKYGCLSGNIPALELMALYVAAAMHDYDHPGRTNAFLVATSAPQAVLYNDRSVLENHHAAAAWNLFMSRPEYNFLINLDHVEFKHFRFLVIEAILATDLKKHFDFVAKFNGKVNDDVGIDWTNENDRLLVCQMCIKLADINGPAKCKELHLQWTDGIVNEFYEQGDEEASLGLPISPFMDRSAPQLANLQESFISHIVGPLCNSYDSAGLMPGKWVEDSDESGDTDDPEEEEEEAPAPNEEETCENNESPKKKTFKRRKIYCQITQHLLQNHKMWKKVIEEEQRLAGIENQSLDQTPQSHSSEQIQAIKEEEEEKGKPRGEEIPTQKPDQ
T1 sequence (P06239 whole entry): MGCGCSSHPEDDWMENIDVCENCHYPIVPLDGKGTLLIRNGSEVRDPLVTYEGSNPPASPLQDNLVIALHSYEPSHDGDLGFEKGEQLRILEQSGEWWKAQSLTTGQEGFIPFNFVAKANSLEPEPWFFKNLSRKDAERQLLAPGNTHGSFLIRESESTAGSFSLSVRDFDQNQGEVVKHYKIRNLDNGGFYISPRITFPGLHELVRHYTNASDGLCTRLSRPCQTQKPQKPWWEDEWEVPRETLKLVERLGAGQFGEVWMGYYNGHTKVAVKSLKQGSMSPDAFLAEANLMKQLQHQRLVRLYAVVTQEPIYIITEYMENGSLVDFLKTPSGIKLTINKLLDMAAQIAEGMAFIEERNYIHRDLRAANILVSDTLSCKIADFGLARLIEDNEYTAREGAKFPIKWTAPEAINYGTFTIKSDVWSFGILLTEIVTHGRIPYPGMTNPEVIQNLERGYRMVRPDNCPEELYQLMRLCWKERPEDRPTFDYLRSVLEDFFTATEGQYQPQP
T7 sequence (Q08499 303-809 limits assumed): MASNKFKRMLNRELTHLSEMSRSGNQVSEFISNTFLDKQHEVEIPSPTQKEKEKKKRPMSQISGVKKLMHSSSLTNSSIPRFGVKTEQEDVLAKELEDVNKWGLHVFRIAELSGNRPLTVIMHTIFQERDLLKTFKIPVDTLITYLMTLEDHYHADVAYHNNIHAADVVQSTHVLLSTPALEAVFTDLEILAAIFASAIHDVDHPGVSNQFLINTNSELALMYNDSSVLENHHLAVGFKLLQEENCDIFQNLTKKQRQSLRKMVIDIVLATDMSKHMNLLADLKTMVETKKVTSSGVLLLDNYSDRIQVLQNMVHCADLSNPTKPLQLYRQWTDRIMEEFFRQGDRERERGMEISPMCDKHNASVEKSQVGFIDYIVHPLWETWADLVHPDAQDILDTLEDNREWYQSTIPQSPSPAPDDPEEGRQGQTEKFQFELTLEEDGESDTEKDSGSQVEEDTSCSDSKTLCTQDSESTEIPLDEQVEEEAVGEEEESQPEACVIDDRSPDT
T6 sequence (P35372 whole entry): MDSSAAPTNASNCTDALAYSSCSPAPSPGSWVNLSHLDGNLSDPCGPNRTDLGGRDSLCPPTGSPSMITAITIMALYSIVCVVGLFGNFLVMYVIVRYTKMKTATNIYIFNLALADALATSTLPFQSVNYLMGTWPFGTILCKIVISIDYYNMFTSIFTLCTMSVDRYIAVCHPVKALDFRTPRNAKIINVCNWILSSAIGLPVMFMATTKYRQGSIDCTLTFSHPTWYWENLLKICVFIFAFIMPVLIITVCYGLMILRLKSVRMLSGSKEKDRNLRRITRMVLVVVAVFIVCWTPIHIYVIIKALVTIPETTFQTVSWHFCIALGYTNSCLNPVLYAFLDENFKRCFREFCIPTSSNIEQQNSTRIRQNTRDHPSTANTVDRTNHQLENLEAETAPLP
T10 sequence (P07550 whole entry): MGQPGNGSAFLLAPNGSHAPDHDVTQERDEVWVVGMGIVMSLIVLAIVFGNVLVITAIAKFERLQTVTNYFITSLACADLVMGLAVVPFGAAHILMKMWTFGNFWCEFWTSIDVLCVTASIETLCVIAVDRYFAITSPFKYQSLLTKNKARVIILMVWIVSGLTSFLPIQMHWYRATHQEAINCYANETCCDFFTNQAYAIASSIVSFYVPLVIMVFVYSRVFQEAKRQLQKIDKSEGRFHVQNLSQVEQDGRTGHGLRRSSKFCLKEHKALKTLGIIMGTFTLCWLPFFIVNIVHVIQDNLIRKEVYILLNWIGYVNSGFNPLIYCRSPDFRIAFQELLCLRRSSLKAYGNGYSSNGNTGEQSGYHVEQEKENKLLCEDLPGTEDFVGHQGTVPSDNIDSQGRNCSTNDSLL

Row | Structure (SMILES) | Mean Percent Inhibition of Control Specific Binding (Lck kinase (h)) [%] | Mean Percent Inhibition of Control Specific Binding (delta (DOP) (h)) [%] | Mean Percent Inhibition of Control Specific Binding [1] [%] | Mean Percent Inhibition of Control Specific Binding (AR (h)) [%] | Mean Percent Inhibition of Control Specific Binding (PDE3A(h)) [%] | Mean Percent Inhibition of Control Specific Binding (dopamine transporter(h)) [%] | Mean Percent Inhibition of Control Specific Binding (μ (MOP) (h)) [%] | Mean Percent Inhibition of Control Specific Binding (PDE4D2(h)) [%] | Mean Percent Inhibition of Control Specific Binding (D2S (h)) [%] | Mean Percent Inhibition of Control Specific Binding (CB1 (h)) [%] | Mean Percent Inhibition of Control Specific Binding (beta2 (h)) [%] | MEC [2] [L/mol/cm] | Mean Percent Inhibition of Control Specific Binding (H1 (h)) [%]
1 | COCc1cc(CCN)c(O)cc1CC(C)C [2CiBu-2OH-5MM, 2-(2-aminoethyl)-5-isobutyl-4-(methoxymethyl)phenol] | 12.8 | 19.5 | 8.4 | −9.9 | 35.1 | 22.3 | 24.4 | 67.4 | 46.6 | −1.9 | 42.1 | 380.8 | 5.7
2 | COCCc1cc(CCN)c(OC)cc1Br [Compound 2CB-5ME, reference compound] | 23.3 | 9.7 | 0.2 | −7.7 | −4.6 | 6.2 | 28.6 | −5.7 | 83.0 | 4.0 | 31.8 |  | 7.3
3 | COCc1cc(CCN)c(OC)cc1Br [Compound 2CB-5MM, 2-(4-bromo-2-methoxy-5-(methoxymethyl)phenyl)ethan-1-amine] | 5.9 | 8.5 | 2.7 | −9.2 | 14.5 | 10.7 | 31.1 | −0.5 | 89.4 | −10.4 | 18.8 | 781.9 | 7.3
4 | COCc1cc(CCN)c(OC)cc1CC(C)C [Compound 2CiBu-5MM, 2-[4-isobutyl-2-methoxy-5-(methoxymethyl)phenyl]ethanamine] | −6.6 | 11.9 | −4.6 | 3.0 | 8.2 | 7.7 | 31.5 | 3.0 | 12.9 | −5.6 | 38.3 | 283.6 | 0.6
